The text below walks through data of publication PMC10778976, “BAY-3827 and SBI-0206965: Potent AMPK Inhibitors That Paradoxically Increase Thr172 Phosphorylation” (International Journal of Molecular Sciences, 2023).

“And” between values parts separate entries of the source, which are not always exact repeats. Identical values can stand only once.

The term IC50 denotes the concentration that gives 50% inhibition.

Experiment [1] addresses T1, LKB1 (human LKB1:STRADα:MO25α complex) (Homo sapiens, UniProt Q15831).
T1 construct: made in house
T1 sequence (Q15831 1-433): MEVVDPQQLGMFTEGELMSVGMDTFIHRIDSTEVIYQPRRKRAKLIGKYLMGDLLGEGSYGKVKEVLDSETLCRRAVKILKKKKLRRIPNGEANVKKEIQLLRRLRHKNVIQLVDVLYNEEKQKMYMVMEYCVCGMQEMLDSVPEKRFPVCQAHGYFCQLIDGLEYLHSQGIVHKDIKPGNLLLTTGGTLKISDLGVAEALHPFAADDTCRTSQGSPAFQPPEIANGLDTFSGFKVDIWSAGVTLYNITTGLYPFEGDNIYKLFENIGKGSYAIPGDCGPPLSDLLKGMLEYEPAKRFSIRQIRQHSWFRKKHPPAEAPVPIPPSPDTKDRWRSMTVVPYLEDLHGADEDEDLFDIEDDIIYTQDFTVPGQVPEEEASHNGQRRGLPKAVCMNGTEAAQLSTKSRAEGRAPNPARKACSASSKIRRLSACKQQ
T1 sequence (Q7RTN6 1-431 partner): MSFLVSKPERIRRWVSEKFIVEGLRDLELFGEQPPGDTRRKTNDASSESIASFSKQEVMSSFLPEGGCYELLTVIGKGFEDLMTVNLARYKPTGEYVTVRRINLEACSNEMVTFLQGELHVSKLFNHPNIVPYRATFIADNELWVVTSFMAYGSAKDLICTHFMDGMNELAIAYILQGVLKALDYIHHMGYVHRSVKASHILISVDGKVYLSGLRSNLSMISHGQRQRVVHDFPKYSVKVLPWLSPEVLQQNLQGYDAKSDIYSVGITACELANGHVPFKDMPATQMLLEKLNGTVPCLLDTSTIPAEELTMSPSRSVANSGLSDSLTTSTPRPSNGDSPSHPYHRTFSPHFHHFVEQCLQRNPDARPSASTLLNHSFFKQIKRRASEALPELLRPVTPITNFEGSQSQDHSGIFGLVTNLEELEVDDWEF
T1 sequence (Q9Y376 1-341 partner): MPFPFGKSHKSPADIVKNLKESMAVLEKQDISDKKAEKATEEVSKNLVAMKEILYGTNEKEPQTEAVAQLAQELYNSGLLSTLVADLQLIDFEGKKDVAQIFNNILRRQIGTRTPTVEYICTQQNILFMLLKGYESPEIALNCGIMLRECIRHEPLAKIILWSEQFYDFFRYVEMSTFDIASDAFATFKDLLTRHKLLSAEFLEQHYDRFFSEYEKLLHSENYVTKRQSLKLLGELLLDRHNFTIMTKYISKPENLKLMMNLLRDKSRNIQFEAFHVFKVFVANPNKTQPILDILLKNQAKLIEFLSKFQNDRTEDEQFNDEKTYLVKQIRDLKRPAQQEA
The experiment in a line: LKB1 activity using LKBtide peptide. It counts as biochemical. As to conditions: LKBtide substrate. As to the method:
To directly determine LKB1 activity, kinase assays were performed in the presence or absence of the indicated concentration of BAY-3827 or SBI-0206965 as for AMPK, except that LKBtide was used as a peptide substrate. PPM1A activity was determined using p-nitrophenyl phosphate (pNPP) as a substrate. PPM1A (5 µg) was incubated with 50 mM pNPP and 50 mM MgCl2 in Hepes buffer in the presence of a vehicle or the indicated concentration of BAY-3827 or SBI-0206965 for 10 min at 30 °C. The reaction was quenched by the addition of 1 mL of 0.5 M EDTA and the amount of product, p-nitrophenol, determined by measuring absorbance at 405 nm.

Experiment [2] concerns endogenous AMPK from HEK-293 cells. The experiment in a line: Activation of dephosphorylated immunoprecipitated AMPK by the LKB1 complex. As to conditions: increasing concentrations; SBI-0206965 effect reversed above 1 µM. It counts as biochemical, human. The protocol: AMPK was immunoprecipitated from HEK-293 cell lysate (2.5 mg protein) using a mixture of anti-α1 and -α2 antibodies. After extensive washing, it was incubated in a shaking incubator at 30 °C for 20 min in Hepes buffer with 50 mM MgCl2 and sufficient PPM1A to yield about 90% inactivation (total volume of 250 µL). The reaction was terminated by adding 1 mL of IP buffer and, after additional washing in the same buffer, aliquots equivalent to 80 µg of lysate protein were incubated in a shaking incubator at 30 °C for 10 min in Hepes buffer with […] and 5 mM MgCl2, with or without a limiting amount of LKB1:STRADα:MO25α complex (0.5 µg) in the presence or absence of 200 µM AMP or the indicated concentration of BAY-3827 or SBI-0206965 (total volume of 50 µL). The reaction was terminated by adding 1 mL of IP buffer and, after additional washing in the same buffer and a final wash into Hepes buffer, AMPK activity was determined using kinase assays as above.

A further experiment concerns the target human α1β1γ1 complex (Homo sapiens, UniProt Q13131). The experiment in a line: Cell-free kinase assay of bacterially expressed human α1β1γ1 complex phosphorylated on Thr172 by CaMKK2. It counts as biochemical. As to conditions: ATP 200 µM; read-out: IC50, inhibition of human α1β1γ1 complex. The text has this:
AMPK assays measured the transfer of radioactivity from labelled ATP to a peptide substrate, which was separated from unreacted ATP by binding to P81 paper. This assay was described previously, except that we used [γ-^33P]ATP rather than [γ-^32P]ATP. The peptide substrate was the AMARA peptide in all experiments other than one, which analyzed allosteric activation by AMP (Figure 2A), when, for technical reasons, the SAMS peptide was used instead. With purified preparations of AMPK, it was assayed in solution, but for assays in cell lysates (Figure 3D and Figure 4D), it was first immunoprecipitated using a mixture of anti-α1 and -α2 antibodies and assayed in resuspended immunoprecipitates. After the initial immunoprecipitation of lysate containing 80 µg of protein, the pellets were washed twice with 1 mL of high salt IP buffer (50 mM Tris-HCL, pH 7.4 at 4 °C, 1 M NaCl, 1 mM EDTA, 1 mM EGTA, 50 mM NaF, 5 mM Na pyrophosphate, 1 mM dithiothreitol, 0.1% (v/v) Triton X-100) and twice with 1 mL of low salt IP buffer (as above but only 150 mM NaCl), followed by a final wash in 1 mL of assay buffer (50 mM Na Hepes, pH7.4, 150 mM NaCl, 1 mM dithiothreitol, 0.02% (v/v) Brij-35). After each wash, the pellet was recovered via centrifugation (16,000× g, 3 min) and then resuspended. […]

Sequence of human α1β1γ1 complex (Q13131 whole entry): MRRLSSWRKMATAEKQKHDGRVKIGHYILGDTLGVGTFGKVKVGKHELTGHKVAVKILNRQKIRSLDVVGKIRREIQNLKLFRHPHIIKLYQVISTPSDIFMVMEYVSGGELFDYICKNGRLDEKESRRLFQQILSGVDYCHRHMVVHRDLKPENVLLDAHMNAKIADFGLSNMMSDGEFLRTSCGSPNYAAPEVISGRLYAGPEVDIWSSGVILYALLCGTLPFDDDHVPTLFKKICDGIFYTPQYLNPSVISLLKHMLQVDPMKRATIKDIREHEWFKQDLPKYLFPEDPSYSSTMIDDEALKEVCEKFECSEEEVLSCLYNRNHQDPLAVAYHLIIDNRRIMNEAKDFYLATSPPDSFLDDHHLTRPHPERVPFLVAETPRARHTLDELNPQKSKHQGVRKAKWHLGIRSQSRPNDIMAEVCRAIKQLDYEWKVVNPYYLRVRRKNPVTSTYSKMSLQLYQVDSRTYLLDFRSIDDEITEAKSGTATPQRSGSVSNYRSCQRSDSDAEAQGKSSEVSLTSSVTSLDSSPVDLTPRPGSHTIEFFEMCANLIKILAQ
Sequence of human α1β1γ1 complex (P54619 whole entry, further chain): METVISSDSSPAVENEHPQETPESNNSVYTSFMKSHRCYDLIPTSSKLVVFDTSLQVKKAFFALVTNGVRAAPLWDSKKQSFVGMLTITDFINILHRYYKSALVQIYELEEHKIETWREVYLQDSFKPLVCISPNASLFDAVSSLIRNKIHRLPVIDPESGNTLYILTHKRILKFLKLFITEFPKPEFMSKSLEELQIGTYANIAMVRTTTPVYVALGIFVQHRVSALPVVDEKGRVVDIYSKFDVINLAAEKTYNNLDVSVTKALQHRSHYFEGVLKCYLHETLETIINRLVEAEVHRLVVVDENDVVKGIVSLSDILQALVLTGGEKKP
Sequence of human α1β1γ1 complex (Q9Y478 2-270, further chain): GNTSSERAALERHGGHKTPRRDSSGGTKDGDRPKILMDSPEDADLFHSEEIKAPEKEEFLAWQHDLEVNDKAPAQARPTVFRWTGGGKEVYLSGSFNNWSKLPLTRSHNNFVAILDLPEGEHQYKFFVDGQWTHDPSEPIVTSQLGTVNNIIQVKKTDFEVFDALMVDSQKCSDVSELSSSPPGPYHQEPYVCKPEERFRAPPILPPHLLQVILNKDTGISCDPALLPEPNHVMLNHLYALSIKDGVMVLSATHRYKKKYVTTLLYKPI

On to `CCc1ccccc1C(=O)Nc1n[nH]c2c(C)c(F)c(C3C(C#N)=C(C)N(C)C(C)=C3C#N)cc12` [BAY-3827], for which, in experiment [1] (all concentrations used), the “effect on LKB1 activity” value was “no inhibition”. Besides, the “effect on activation of AMPK by LKB1” value in experiment [2] is on record as “little or no effect”. Also, on human α1β1γ1 complex, the IC50 turned out to be 0.025 µM.

As for `CNC(=O)c1ccccc1Oc1nc(Nc2cc(OC)c(OC)c(OC)c2)ncc1Br` [SBI-0206965], the 50% inhibitory concentration (IC50) in experiment [1] (read-out: IC50, inhibition of LKB1 activity) was 6.1 µM; on human α1β1γ1 complex, 0.247 µM and 0.25 µM. In addition, the “effect on activation of AMPK by LKB1” value in experiment [2] is “progressively promoted activation by LKB1”.
